Data reported in US20060069132A1, “Azolecarboxamide herbicides” (priority 2004, published 2006).
Like-named read-outs stand apart in the source and are kept apart here.

Legend:
rice = experiment: Test C flooded paddy test; assay type: in vivo, Oryza sativa
In short: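 Postemergence sprays applied to plants 2 to 18 cm tall (1- to 4-leaf stage); paddy species grown to 2-leaf stage under flooding. After 12 to 14 days in greenhouse, visual rating versus untreated controls on 0–100 scale (0 no effect, 100 complete control).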

[1] = test system: smallflower umbrella sedge; experiment: Test C flooded paddy test; assay type: in vivo, Cyperus difformis
morningglory = experiment: Test A pre-/postemergence herbicide test; assay type: in vivo, Ipomoea spp.; settings: for pest or weed control at 500 g/ha / pest or weed control at 2000 g/ha: Ipomoea, 240 h
In short: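 Plants are held in greenhouse about ten days after treatment, then compared with untreated controls and scored 0 (no effect) to 100 (complete control). Preemergence dosing is a directed soil spray on sown sandy loam; postemergence dosing is spray to runoff at 2–10 cm height.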

soybean = experiment: Test C pre-/postemergence herbicide test; assay type: in vivo, Glycine max; settings: for Soybean plant response rating: 500 g ai/ha
In short: (§1)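 Greenhouse-grown plants were evaluated visually 12 to 14 days after treatment, with 100 meaning complete control and 0 no effect. Application was preemergence, or postemergence at 2 to 18 cm.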

goosegrass = experiment: Test C pre-/postemergence herbicide test; assay type: in vivo, Eleusine indica; settings: for Goosegrass plant response rating: 500 g ai/ha
In short: as §1

yellow nutsedge = experiment: Test C pre-/postemergence herbicide test; assay type: in vivo, Cyperus esculentus; settings: for Nutsedge, Yellow plant response rating: 500 g ai/ha
In short: as §1

eastern black nightshade = experiment: Test C pre-/postemergence herbicide test; assay type: in vivo, Solanum ptycanthum; settings: for Plant response rating (0 = no effect, 100 = complete control), Nightshade: 62 g ai/ha
In short: as §1

[2] = 62 g ai/ha, scale 0 to 100 (0 no effect, 100 complete control)
[3] = 125 g ai/ha, scale of 0 to 100, 0 is no effect, 100 is complete control
[4] = 250 g ai/ha, visual rating after 12 to 14 days, scale 0 to 100 (0 no effect, 100 complete control)
[5] = 500 g ai/ha, visual rating after 12 to 14 days, scale 0 to 100 (0 no effect, 100 complete control)
[6] = 250 g ai/ha, scale 0 to 100 (0 no effect, 100 complete control), visual, 12 to 14 days, preemergence
[7] = Postemergence, 250 g ai/ha, scale 0 to 100, 0 no effect, 100 complete control
[8] = Preemergence, scale 0 to 100, 0 no effect, 100 complete control
[9] = postemergence, 125 g ai/ha, scale 0 to 100
[10] = postemergence, 62 g ai/ha, scale 0 to 100

## C=Cn1nc(C(C)(C)C)cc1C(=O)Nc1cccc(C(=O)N(CC)CC)c1 [Compound 34]
rice; [2]
  Rice plant response rating: 0
rice; [3]
  Rice plant response rating: 0
rice; [4]
  Plant response rating, Rice: 50
rice; [5]
  Plant response rating, Rice: 55
[1]; [2]
  Sedge, Umbrella plant response rating: 50
[1]; [3]
  Sedge, Umbrella plant response rating: 80
[1]; [4]
  Plant response rating, Sedge, Umbrella: 80
[1]; [5]
  Plant response rating, Sedge, Umbrella: 90
morningglory; Postemergence, 500 g ai/ha, 0 to 100 scale, 0 no effect, 100 complete control
  Plant response rating, Morningglory: 10
morningglory; Postemergence, 2000 g ai/ha, 0 to 100 scale, 0 no effect, 100 complete control
  Plant response rating, Morningglory: 20
morningglory; Preemergence, 500 g ai/ha, visual rating, 0 to 100 scale (0 no effect, 100 complete control)
  Morningglory plant response rating: 35
morningglory; Preemergence, 2000 g ai/ha, 0 to 100 scale, 0 no effect, 100 complete control
  Morningglory plant response rating: 50
soybean; 62 g ai/ha, preemergence
  Plant response rating (0 = no effect, 100 = complete control), Soybean: 0
soybean; [6]
  Plant response rating, Soybean: 0
soybean; Postemergence, scale 0 to 100
  Soybean plant response rating: 80
soybean; [7]
  Plant response rating, Soybean: 80
soybean; [8]
  Soybean plant response rating: 0
soybean; [9]
  Plant response rating, Soybean: 80
soybean; [10]
  Plant response rating, Soybean: 70
goosegrass; 62 g ai/ha, preemergence
  Plant response rating (0 = no effect, 100 = complete control), Goosegrass: 20
goosegrass; 125 g ai/ha, scale 0-100, preemergence
  Plant response rating, Goosegrass: 80
goosegrass; [6]
  Plant response rating, Goosegrass: 100
goosegrass; Postemergence, scale 0 to 100
  Goosegrass plant response rating: 40
goosegrass; Postemergence, 125 g ai/ha, scale 0 to 100, 0 no effect, 100 complete control
  Plant response rating, Goosegrass: 40
goosegrass; [7]
  Plant response rating, Goosegrass: 40
goosegrass; [8]
  Goosegrass plant response rating: 100
goosegrass; [10]
  Plant response rating, Goosegrass: 30
Yellow nutsedge; 62 g ai/ha, preemergence
  Plant response rating (0 = no effect, 100 = complete control), Nutsedge, Yellow: 0
Yellow nutsedge; [6]
  Plant response rating, Nutsedge, Yellow: 0
Yellow nutsedge; Postemergence, scale 0 to 100
  Nutsedge, Yellow plant response rating: 20
Yellow nutsedge; [7]
  Plant response rating, Nutsedge, Yellow: 0
Yellow nutsedge; [8]
  Nutsedge, Yellow plant response rating: 0
Yellow nutsedge; [9]
  Plant response rating, Nutsedge, Yellow: 0
Yellow nutsedge; [10]
  Plant response rating, Nutsedge, Yellow: 0
Eastern black nightshade; preemergence
  Plant response rating (0 = no effect, 100 = complete control), Nightshade: 10
Eastern black nightshade; [6]
  Plant response rating, Nightshade: 90
Eastern black nightshade; Preemergence, 500 g ai/ha, scale 0 to 100, 0 no effect, 100 complete control
  Nightshade plant response rating: 100

## CCOC(=O)c1cccc(NC(=O)c2cc(C(C)(C)C)nn2CC)c1 [Compound 80, ethyl 3-[[[3-(1,1-dimethylethyl)-1-ethyl-1H-pyrazol-5-yl]carbonyl]-amino]benzoate]
rice; Oryza sativa, 62 g ai/ha, scale 0 to 100 (0 no effect, 100 complete control), read-out: Rice plant response rating
  plant injury at 62 g/ha: 20%
rice; Oryza sativa, 125 g ai/ha, scale of 0 to 100, 0 is no effect, 100 is complete control, read-out: Rice plant response rating
  plant injury at 125 g/ha: 40%
rice; Oryza sativa, 250 g ai/ha, scale of 0 to 100, 0 is no effect, 100 is complete control, read-out: Rice plant response rating
  plant injury at 250 g/ha: 40%
rice; Oryza sativa, 500 g ai/ha, visual rating after 12 to 14 days, scale 0 to 100 (0 no effect, 100 complete control), read-out: Plant response rating, Rice
  plant injury at 500 g/ha: 40%
[1]; Cyperus difformis, 62 g ai/ha, scale 0 to 100 (0 no effect, 100 complete control), read-out: Sedge, Umbrella plant response rating
  pest or weed control at 62 g/ha: 70%
[1]; Cyperus difformis, 125 g ai/ha, scale of 0 to 100, 0 is no effect, 100 is complete control, read-out: Sedge, Umbrella plant response rating
  pest or weed control at 125 g/ha: 70%
[1]; Cyperus difformis, 250 g ai/ha, scale of 0 to 100, 0 is no effect, 100 is complete control, read-out: Sedge, Umbrella plant response rating
  pest or weed control at 250 g/ha: 70%
[1]; Cyperus difformis, 500 g ai/ha, visual rating after 12 to 14 days, scale 0 to 100 (0 no effect, 100 complete control), read-out: Plant response rating, Sedge, Umbrella
  pest or weed control at 500 g/ha: 70%
morningglory; post-emergence, Postemergence, 500 g ai/ha, 0 to 100 scale, 0 no effect, 100 complete control, read-out: Plant response rating, Morningglory
  pest or weed control at 500 g/ha: 40%
morningglory; post-emergence, Postemergence, 2000 g ai/ha, 0 to 100 scale, 0 no effect, 100 complete control, read-out: Plant response rating, Morningglory
  pest or weed control at 2000 g/ha: 50%
morningglory; pre-emergence, Preemergence, 500 g ai/ha, visual rating, 0 to 100 scale (0 no effect, 100 complete control), read-out: Morningglory plant response rating
  pest or weed control at 500 g/ha: 15%
morningglory; pre-emergence, Preemergence, 2000 g ai/ha, 0 to 100 scale, 0 no effect, 100 complete control, read-out: Morningglory plant response rating
  pest or weed control at 2000 g/ha: 30%
soybean; 62 g ai/ha, preemergence
  Plant response rating (0 = no effect, 100 = complete control), Soybean: 0
soybean; Glycine max, post-emergence, Postemergence, 250 g ai/ha, scale 0 to 100, 0 no effect, 100 complete control, read-out: Plant response rating, Soybean
  plant injury at 250 g/ha: 100%
soybean; Glycine max, post-emergence, postemergence, 125 g ai/ha, scale 0 to 100, read-out: Plant response rating, Soybean
  plant injury at 125 g/ha: 90%
soybean; Glycine max, post-emergence, postemergence, 62 g ai/ha, scale 0 to 100, read-out: Plant response rating, Soybean
  plant injury at 62 g/ha: 90%
soybean; Glycine max, pre-emergence, 31 g ai/ha, preemergence, scale 0 to 100, read-out: Plant response rating, Soybean
  plant injury at 31 g/ha: 0%
soybean; Glycine max, pre-emergence, 125 g ai/ha, scale 0 (no effect) to 100 (complete control), visual, 12 to 14 days, read-out: Plant response rating, Soybean
  plant injury at 125 g/ha: 0%
goosegrass; 62 g ai/ha, preemergence
  Plant response rating (0 = no effect, 100 = complete control), Goosegrass: 10
goosegrass; Eleusine indica, post-emergence, 312 h, Postemergence, 250 g ai/ha, scale 0 to 100, 0 no effect, 100 complete control, read-out: Plant response rating, Goosegrass
  pest or weed control at 250 g/ha: 80%
goosegrass; Eleusine indica, post-emergence, 312 h, postemergence, 125 g ai/ha, scale 0 to 100, read-out: Plant response rating, Goosegrass
  pest or weed control at 125 g/ha: 80%
goosegrass; Eleusine indica, post-emergence, 312 h, postemergence, 62 g ai/ha, scale 0 to 100, read-out: Plant response rating, Goosegrass
  pest or weed control at 62 g/ha: 80%
goosegrass; Eleusine indica, pre-emergence, 312 h, 31 g ai/ha, preemergence, scale 0 to 100, read-out: Plant response rating, Goosegrass
  pest or weed control at 31 g/ha: 10%
goosegrass; Eleusine indica, pre-emergence, 312 h, 125 g ai/ha, scale 0 (no effect) to 100 (complete control), visual, 12 to 14 days, read-out: Plant response rating, Goosegrass
  pest or weed control at 125 g/ha: 10%
Yellow nutsedge; 62 g ai/ha, preemergence
  Plant response rating (0 = no effect, 100 = complete control), Nutsedge, Yellow: 0
Yellow nutsedge; Cyperus, post-emergence, Postemergence, 250 g ai/ha, scale 0 to 100, 0 no effect, 100 complete control, read-out: Plant response rating, Nutsedge, Yellow
  pest or weed control at 250 g/ha: 40%
Yellow nutsedge; Cyperus, post-emergence, postemergence, 125 g ai/ha, scale 0 to 100, read-out: Plant response rating, Nutsedge, Yellow
  pest or weed control at 125 g/ha: 40%
Yellow nutsedge; Cyperus, post-emergence, postemergence, 62 g ai/ha, scale 0 to 100, read-out: Plant response rating, Nutsedge, Yellow
  pest or weed control at 62 g/ha: 40%
Yellow nutsedge; Cyperus, pre-emergence, 31 g ai/ha, preemergence, scale 0 to 100, read-out: Plant response rating, Nutsedge, Yellow
  pest or weed control at 31 g/ha: 0%
Yellow nutsedge; Cyperus, pre-emergence, 125 g ai/ha, scale 0 (no effect) to 100 (complete control), visual, 12 to 14 days, read-out: Plant response rating, Nutsedge, Yellow
  pest or weed control at 125 g/ha: 0%
Eastern black nightshade; preemergence
  Plant response rating (0 = no effect, 100 = complete control), Nightshade: 10
Eastern black nightshade; pre-emergence, 31 g ai/ha, preemergence, scale 0 to 100, read-out: Plant response rating, Nightshade
  pest or weed control at 31 g/ha: 0%
Eastern black nightshade; pre-emergence, 125 g ai/ha, scale 0 (no effect) to 100 (complete control), visual, 12 to 14 days, read-out: Plant response rating, Nightshade
  pest or weed control at 125 g/ha: 10%
